Reference: publication PMC3072269 (Journal of medicinal chemistry, 2010)
Entries after “also recorded” stand apart in the source; their conditions may differ. Read-outs that look alike come from different tables or passages of the source.

What was measured:
PTEN mRNA = assay: Quantitative RT-PCR analysis of PTEN mRNA splicing in mouse tissues; assay type: in vivo, Balb/c mice; conditions: for PTEN mRNA in liver, quantitative RT-PCR: i.p. 3x/wk, 7 at 25 mg/kg, 1 at 40 mg/kg, PNAs 10 or 40 mg/kg
PTEN protein = assay: Western blot analysis of PTEN protein in mouse tissues; assay type: in vivo, Balb/c mice; conditions: 7 at 25 mg/kg, i.p. 3x/wk, 2 wks
PTEN = conditions: mice, determined in a previous study, cited from earlier work
[1] = tested on: CD40 cell surface protein expression; conditions: read-out: IC50, CD40 cell surface protein expression; flow cytometry, FITC labeled antiCD40 antibody; cited from earlier work
PTEN RNA = assay: Quantitative RT-PCR of PTEN RNA splicing in BCL1 cells; assay type: cell-based, murine; conditions: data not shown
[2] = amphipathic peptide study, dosing as in Table 6

Substance: 1: uniform 2′-O-MOE phosphorothioate 20-mer CTCAGCACATCTACAAGAAA, PTEN intron 3:exon 4 (all 2'-MOE, all phosphorothioate, methylation of C not given here) [Compound 1, reference compound]
- PTEN mRNA in liver, quantitative RT-PCR (PTEN mRNA; 2 wks): modest downregulation of full length transcript with upregulation of the alternatively spliced product

Substance: 7: antiPTEN phosphorothioate oligonucleotide with 2′-O-MOE wings and a 2′-deoxyribonucleotide gap, CTGCTAGCCTCTGGATTTGA, exon 9 [Compound 7]
- PTEN protein in adipose tissue, western blot (PTEN protein; 9 at high dose (40 mg/kg)): significant and comparable downregulation of PTEN protein
- PTEN protein expression in liver, western blot (PTEN protein; PNAs 10 or 40 mg/kg): significant inhibition of PTEN protein expression
- EC50 (PTEN; read-out: Adipose EC50): 700 to 1400 nM
- EC50 (PTEN; read-out: Liver EC50): 14000 nM
- PTEN mRNA in liver, quantitative RT-PCR (PTEN mRNA; 2 wks): downregulation of total PTEN message (both isoforms)

Substance: (Lys)2-TKCTCAGCACATCTACA-Lys [Compound 10]
- PTEN mRNA splicing in white adipose tissue, quantitative RT-PCR (PTEN mRNA; 10 or 40 mg/kg i.p., 3x/wk, 2 wks): marginal with the alternatively spliced isoform being upregulated but the full length transcript being unaltered; also recorded: inactive at both doses

Substance: CACAGATGACATTAG-Lys [Compound 8]
- IC50 [1]: 900 nM

Substance: CTCAGCACATCTACA-Lys [Compound 3]
- alteration of splicing of PTEN RNA (PTEN RNA): full length transcript was reduced and the alternatively spliced product was enhanced

Substance: D-(KKLLKAALKLAKKG)-TKCTCAGCACATCTACA-Lys [Compound 14]
- PTEN splicing activity in adipose tissue, quantitative RT-PCR (PTEN mRNA; [2]): showed activity at the low dose
- PTEN splicing activity in kidney, quantitative RT-PCR (PTEN mRNA; [2]): comparable to the octa(L-lysine) conjugate 9, even when administered at an approximately 4.5-fold lower dose
- histopathological examination of the kidneys, low dose group (Tolerability in mice; 8.25 mg/kg i.p., 3x/wk, 2 wks): nephrotoxicity with proximal tubule necrosis and regeneration
- liver morphology, high dose group (Tolerability in mice; 33 mg/kg i.p.): appeared normal
- spleen size, high dose group (Tolerability in mice; 33 mg/kg i.p.): drastically reduced spleen sizes
- histopathological examination of the kidneys, high dose group (Tolerability in mice; 33 mg/kg i.p., single administration): profound proximal tubule necrosis and proteinacous accumulation in Henle’s loop and collecting tubules
- body weight, high dose group (Tolerability in mice; 33 mg/kg i.p., arm terminated prematurely): rapid weight loss after administration of the first dose, indicative of acute toxicity
